Source: patent publication US10689381B2 (priority 2017, dated 2020)
Read-outs that look alike come from different tables or passages of the source.

Columns and labels:
HCT116 = assay: cells; format: cell-based, human; conditions: for IC50: read-out: IC50 HCT116
Outline: (§1)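 Compound exposure ran 72 h at six concentrations (0–1000 nM or 0–10000 nM, duplicate) on cells plated at 30,000 cells/mL in 10% FBS DMEM. A closing 37 °C incubation took 15 min (HCT116) or 5 min (L1210).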

L1210 = assay: cells; format: cell-based, mouse
Outline: as §1

CC[C@]1(NC(=O)/C=C/c2ccsc2)C[C@H]2CN(CCc3c([nH]c4ccccc34)[C@@](C(=O)OC)(c3cc4c(cc3OC)N(C)[C@H]3[C@@](O)(C(=O)OC)[C@H](OC(C)=O)[C@]5(CC)C=CCN6CC[C@]43[C@@H]65)C2)C1 [Compound 114]
IC50 (HCT116; Table 3): 0.6 nM
IC50 (L1210; Table 3): 0.5 nM

CCC1(NC(=O)C=Cc2cccnc2)CC2CN(CCc3c([nH]c4ccccc34)C(C(=O)OC)(c3cc4c(cc3OC)N(C)C3C(O)(C(=O)OC)C(OC(C)=O)C5(CC)C=CCN6CCC43C65)C2)C1 (stereo not drawn) [Compound 110]
IC50 (HCT116; Table 3): 5.7 nM
IC50 (L1210; Table 3): 5.9 nM

CC[C@]1(NC(=O)/C=C/c2ccco2)C[C@H]2CN(CCc3c([nH]c4ccccc34)[C@@](C(=O)OC)(c3cc4c(cc3OC)N(C)[C@H]3[C@@](O)(C(=O)OC)[C@H](OC(C)=O)[C@]5(CC)C=CCN6CC[C@]43[C@@H]65)C2)C1 [Compound 113]
IC50 (HCT116; Table 3): 1.3 nM
IC50 (L1210; Table 3): 1.3 nM

CC[C@]1(NC(=O)c2ccc3c(c2)CCN3C(=O)OC(C)(C)C)C[C@H]2CN(CCc3c([nH]c4ccccc34)[C@@](C(=O)OC)(c3cc4c(cc3OC)N(C)[C@H]3[C@@](O)(C(=O)OC)[C@H](OC(C)=O)[C@]5(CC)C=CCN6CC[C@]43[C@@H]65)C2)C1 [Compound 178]
IC50 (HCT116; Table 6): 15 nM
IC50 (L1210; Table 6): 35 nM

CC[C@]1(NC(=O)c2ccc(OC(F)(F)F)c(OC)c2)C[C@H]2CN(CCc3c([nH]c4ccccc34)[C@@](C(=O)OC)(c3cc4c(cc3OC)N(C)[C@H]3[C@@](O)(C(=O)OC)[C@H](OC(C)=O)[C@]5(CC)C=CCN6CC[C@]43[C@@H]65)C2)C1 [Compound 83]
IC50 (HCT116; Table 2): 1.7 nM
IC50 (L1210; Table 2): 1.3 nM

CC[C@]1(NC(=O)c2cnco2)C[C@H]2CN(CCc3c([nH]c4ccccc34)[C@@](C(=O)OC)(c3cc4c(cc3OC)N(C)[C@H]3[C@@](O)(C(=O)OC)[C@H](OC(C)=O)[C@]5(CC)C=CCN6CC[C@]43[C@@H]65)C2)C1 [Compound 138]
IC50 (HCT116; Table 5): 3.5 nM
IC50 (L1210; Table 5): 3.9 nM

CC[C@]1(NC(=O)c2cccc(C)c2)C[C@H]2CN(CCc3c([nH]c4ccccc34)[C@@](C(=O)OC)(c3cc4c(cc3OC)N(C)[C@H]3[C@@](O)(C(=O)OC)[C@H](OC(C)=O)[C@]5(CC)C=CCN6CC[C@]43[C@@H]65)C2)C1 [Compound 26]
IC50 (HCT116; Table 2): 0.7 nM
potency relative to vinblastine (more potent) (HCT116; vinblastine-sensitive cell lines): 10 fold
IC50 (L1210; Table 2): 0.5 nM

CCCc1ccc(C(=O)NC2(CC)CC3CN(CCc4c([nH]c5ccccc45)C(C(=O)OC)(c4cc5c(cc4OC)N(C)C4C(O)(C(=O)OC)C(OC(C)=O)C6(CC)C=CCN7CCC54C76)C3)C2)cc1 (stereo not drawn) [Compound 34]
IC50 (HCT116; Table 2): 4.8 nM
IC50 (L1210; Table 2): 4.3 nM

CCC1(NC(=O)c2ccc3c(c2)CCN3)CC2CN(CCc3c([nH]c4ccccc34)C(C(=O)OC)(c3cc4c(cc3OC)N(C)C3C(O)(C(=O)OC)C(OC(C)=O)C5(CC)C=CCN6CCC43C65)C2)C1 (stereo not drawn) [Compound 177]
IC50 (HCT116; Table 6): 6.7 nM
IC50 (L1210; Table 6): 5.1 nM

CCC1(NC(=O)c2ccc(C(F)(F)F)cc2)CC2CN(CCc3c([nH]c4ccccc34)C(C(=O)OC)(c3cc4c(cc3OC)N(C)C3C(O)(C(=O)OC)C(OC(C)=O)C5(CC)C=CCN6CCC43C65)C2)C1 (stereo not drawn) [Compound 39]
IC50 (HCT116; Table 2): 3.3 nM
IC50 (L1210; Table 2): 4.3 nM

CCCCCC(=O)N[C@@]1(CC)C[C@H]2CN(CCc3c([nH]c4ccccc34)[C@@](C(=O)OC)(c3cc4c(cc3OC)N(C)[C@H]3[C@@](O)(C(=O)OC)[C@H](OC(C)=O)[C@]5(CC)C=CCN6CC[C@]43[C@@H]65)C2)C1 [Compound 15]
IC50 (HCT116; Table 1): 40 nM
IC50 (L1210; Table 1): 55 nM

CCC1(NC(=O)c2ccc(OC)c(Br)c2)CC2CN(CCc3c([nH]c4ccccc34)C(C(=O)OC)(c3cc4c(cc3OC)N(C)C3C(O)(C(=O)OC)C(OC(C)=O)C5(CC)C=CCN6CCC43C65)C2)C1 (stereo not drawn) [Compound 93]
IC50 (HCT116; Table 2): 6.2 nM
IC50 (L1210; Table 2): 5.1 nM

CCC1(NC(=O)Cc2ccccc2)CC2CN(CCc3c([nH]c4ccccc34)C(C(=O)OC)(c3cc4c(cc3OC)N(C)C3C(O)(C(=O)OC)C(OC(C)=O)C5(CC)C=CCN6CCC43C65)C2)C1 (stereo not drawn) [Compound 21]
IC50 (HCT116; Table 1): 55 nM
IC50 (L1210; Table 1): 55 nM

CC[C@]1(NC(=O)C2CCCCC2)C[C@H]2CN(CCc3c([nH]c4ccccc34)[C@@](C(=O)OC)(c3cc4c(cc3OC)N(C)[C@H]3[C@@](O)(C(=O)OC)[C@H](OC(C)=O)[C@]5(CC)C=CCN6CC[C@]43[C@@H]65)C2)C1 [Compound 20]
IC50 (HCT116; Table 1): 70 nM
IC50 (L1210; Table 1): 55 nM

CCc1cc(CC)cc(C(=O)N[C@@]2(CC)C[C@H]3CN(CCc4c([nH]c5ccccc45)[C@@](C(=O)OC)(c4cc5c(cc4OC)N(C)[C@H]4[C@@](O)(C(=O)OC)[C@H](OC(C)=O)[C@]6(CC)C=CCN7CC[C@]54[C@@H]76)C3)C2)c1 [Compound 31]
IC50 (HCT116; Table 2): 6.4 nM
IC50 (L1210; Table 2): 4.2 nM

CCC1(NS(=O)(=O)c2ccc(OC)cc2)CC2CN(CCc3c([nH]c4ccccc34)C(C(=O)OC)(c3cc4c(cc3OC)N(C)C3C(O)(C(=O)OC)C(OC(C)=O)C5(CC)C=CCN6CCC43C65)C2)C1 (stereo not drawn) [Compound 181]
IC50 (HCT116; Table 7, C20′ sulfonamides): 30 nM
IC50 (L1210; Table 7, C20′ sulfonamides): 35 nM
